From ChEMBL document CHEMBL1212898 (J Med Chem, 2010)

Columns and labels:
[1] = molecular target: Sodium-dependent serotonin transporter (Rattus norvegicus, UniProt P31652); experiment: Displacement of [3H]citalopram from SERT in rat brain stem by scintillation counting; assay type: tissue-based
Transporter = Transporter (Rattus norvegicus, UniProt Q63380); experiment: Displacement of [3H]nisoxetine from NET in rat frontal cortex by scintillation counting; assay type: tissue-based
[2] = molecular target: Sodium-dependent dopamine transporter (Rattus norvegicus, UniProt P23977); experiment: Displacement of [3H]WIN-35428 from DAT in rat caudate-putamen by scintillation counting; assay type: tissue-based
Chain of Sodium-dependent dopamine transporter (P23977 whole entry): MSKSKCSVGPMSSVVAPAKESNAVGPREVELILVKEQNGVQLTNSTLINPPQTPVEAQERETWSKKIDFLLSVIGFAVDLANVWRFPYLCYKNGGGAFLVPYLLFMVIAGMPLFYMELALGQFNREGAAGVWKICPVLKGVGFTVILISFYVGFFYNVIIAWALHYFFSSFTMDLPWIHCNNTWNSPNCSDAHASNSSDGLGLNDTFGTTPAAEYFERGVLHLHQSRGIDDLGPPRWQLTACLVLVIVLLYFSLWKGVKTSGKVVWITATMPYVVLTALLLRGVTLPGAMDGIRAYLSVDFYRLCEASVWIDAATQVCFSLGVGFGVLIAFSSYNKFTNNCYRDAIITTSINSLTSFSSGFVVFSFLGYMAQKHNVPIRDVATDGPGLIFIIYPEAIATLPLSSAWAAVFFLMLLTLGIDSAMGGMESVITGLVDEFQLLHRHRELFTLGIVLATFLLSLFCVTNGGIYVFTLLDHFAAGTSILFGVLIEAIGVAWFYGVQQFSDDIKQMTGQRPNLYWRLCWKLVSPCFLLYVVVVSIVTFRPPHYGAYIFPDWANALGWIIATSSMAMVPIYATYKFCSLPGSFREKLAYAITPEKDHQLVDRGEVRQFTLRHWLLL

Rattus norvegicus [3] = organism: Rattus norvegicus; experiment: Selectivity ratio of Ki for NET in rat brain frontal cortex to Ki for SERT in rat brain stem; assay type: tissue-based
Rattus norvegicus [4] = organism: Rattus norvegicus; experiment: Selectivity ratio of Ki for DAT in rat caudate-putamen to Ki for SERT in rat brain stem; assay type: tissue-based
[5] = Displacement of [3H]leucine from Leucine transporter

Chain of Sodium-dependent serotonin transporter (P31652 whole entry): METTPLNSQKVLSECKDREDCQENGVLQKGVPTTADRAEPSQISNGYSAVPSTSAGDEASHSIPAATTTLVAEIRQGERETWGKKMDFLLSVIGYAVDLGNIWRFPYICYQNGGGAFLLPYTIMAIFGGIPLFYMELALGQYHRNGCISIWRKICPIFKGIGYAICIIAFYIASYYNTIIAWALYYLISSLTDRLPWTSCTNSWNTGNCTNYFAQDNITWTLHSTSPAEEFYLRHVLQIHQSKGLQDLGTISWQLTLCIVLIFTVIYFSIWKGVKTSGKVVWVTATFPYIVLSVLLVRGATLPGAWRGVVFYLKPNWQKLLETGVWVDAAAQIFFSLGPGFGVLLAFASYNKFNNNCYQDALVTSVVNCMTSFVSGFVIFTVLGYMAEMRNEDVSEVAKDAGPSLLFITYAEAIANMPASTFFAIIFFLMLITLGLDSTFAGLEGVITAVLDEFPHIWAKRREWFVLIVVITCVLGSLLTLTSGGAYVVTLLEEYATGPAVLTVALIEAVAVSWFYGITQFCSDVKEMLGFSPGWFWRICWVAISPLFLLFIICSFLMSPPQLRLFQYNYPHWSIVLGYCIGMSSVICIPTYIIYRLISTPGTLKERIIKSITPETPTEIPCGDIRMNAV
Chain of Transporter (Q63380 whole entry): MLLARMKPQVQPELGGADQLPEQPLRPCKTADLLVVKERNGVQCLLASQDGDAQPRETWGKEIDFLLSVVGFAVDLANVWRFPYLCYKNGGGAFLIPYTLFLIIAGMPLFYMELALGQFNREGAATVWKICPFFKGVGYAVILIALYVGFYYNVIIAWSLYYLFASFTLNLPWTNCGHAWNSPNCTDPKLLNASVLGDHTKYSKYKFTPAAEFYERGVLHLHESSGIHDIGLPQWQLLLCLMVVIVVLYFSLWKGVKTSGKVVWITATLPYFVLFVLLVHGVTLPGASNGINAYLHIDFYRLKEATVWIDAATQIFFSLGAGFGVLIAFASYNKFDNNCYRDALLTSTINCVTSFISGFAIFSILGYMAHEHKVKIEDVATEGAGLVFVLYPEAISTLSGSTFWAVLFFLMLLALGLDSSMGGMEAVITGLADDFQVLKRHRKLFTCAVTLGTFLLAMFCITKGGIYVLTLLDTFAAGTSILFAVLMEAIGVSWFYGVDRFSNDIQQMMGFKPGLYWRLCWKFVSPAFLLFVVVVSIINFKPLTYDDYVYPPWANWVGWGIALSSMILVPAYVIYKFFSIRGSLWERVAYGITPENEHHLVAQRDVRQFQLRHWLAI

| SMILES | Ki [1] [µM] | Ki (Transporter) [µM] | Ki [2] [µM] | Ratio Ki (Rattus norvegicus [3]) | Ratio Ki (Rattus norvegicus [4]) | IC50 [5] [µM] |
| --- | --- | --- | --- | --- | --- | --- |
| CN(C)CCC[C@]1(c2ccc(F)cc2)OCc2cc(/C=C/c3ccccc3)ccc21 | 0.113 | 5.19 | 0.541 | 46 | 4.79 |  |
| CN(C)CCC[C@@]1(c2ccc(F)cc2)OCc2cc(/C=C/c3ccccc3)ccc21 | 0.0106 | 16.8 | 1.81 | 1590 | 171 |  |
| COc1cccc(-c2ccc3c(c2)COC3(CCCN(C)C)c2ccc(F)cc2)c1 (configuration not stated) | 0.0092 | 2.61 |  |  |  |  |
| CN(C)CCCC1(c2ccc(F)cc2)OCc2c(-c3cccc(F)c3)cccc21 (configuration not stated) | 0.00822 | 7.67 | 0.49 | 933 | 60 |  |
| CN(C)CCCC1(c2ccc(F)cc2)OCc2c(-c3ccccc3)cccc21 (configuration not stated) | 0.00507 | 7.16 | 0.542 | 1410 | 107 |  |
| CN(C)CCC[C@@]1(c2ccc(F)cc2)OCc2cc(Br)ccc21 | 0.00092 | 8.41 | 2.25 | 9140 | 2450 | 400 |
| CN(C)CCCC1(c2ccc(F)cc2)OCc2cc(-c3cccc(Cl)c3)ccc21 (configuration not stated) | 0.0612 | 5.71 | 1.39 | 93 | 23 |  |
| CN(C)CCCC1(c2ccc(F)cc2)OCc2cc(-c3ccccc3)ccc21 (configuration not stated) | 0.04 | 16.9 | 1.8 | 423 | 45 |  |
| CN(C)CCCC1(c2ccc(F)cc2)OCc2cc(-c3ccc(Cl)c(Cl)c3)ccc21 (configuration not stated) | 0.143 | 12.7 | 2.51 | 89 | 18 |  |
| CN(C)CCCC1(c2ccc(F)cc2)OCc2cc(-c3cccc(C#N)c3)ccc21 (configuration not stated) | 0.0067 | 4.98 | 0.737 | 743 | 110 |  |
| CN(C)CCCC1(c2ccc(F)cc2)OCc2cc(/C=C/c3ccc(Cl)cc3)ccc21 (configuration not stated) | 0.0336 | 25.1 | 2 | 747 | 60 |  |
| CN(C)CCC[C@]1(c2ccc(F)cc2)OCc2cc(Br)ccc21 | 0.0236 | 21.6 | 1.35 | 915 | 57 | 420 |
| CN(C)CCCC1(c2ccc(F)cc2)OCc2cc(CCc3ccccc3)ccc21 (configuration not stated) | 0.0381 | 4.63 |  |  |  |  |
| CN(C)CCCC1(c2ccc(F)cc2)OCc2c(Br)cccc21 (configuration not stated) | 0.00387 | 6.17 | 0.216 | 1590 | 56 |  |
| CN(C)CCCC1(c2ccc(F)cc2)OCc2cc(-c3cccc(F)c3)ccc21 (configuration not stated) | 0.0218 | 4.2 |  |  |  |  |
| CN(C)CCCC1(c2ccc(F)cc2)OCc2cc(-c3cccc(N)c3)ccc21 (configuration not stated) | 0.0104 |  | 1.69 |  |  |  |
| CN(C)CCCC1(c2ccc(F)cc2)OCc2cc(-c3cc(F)cc(F)c3)ccc21 (configuration not stated) | 0.108 | 2 |  |  |  |  |
| CN(C)CCCC1(c2ccc(F)cc2)OCc2cc(/C=C/c3ccccc3)ccc21 (racemic) | 0.00932 | 11.4 | 0.836 | 1220 | 90 |  |
| CN(C)CCC[C@@]1(c2ccc(F)cc2)OCc2cc(C#N)ccc21 [ESCITALOPRAM] |  |  |  |  |  | 1560 |
| CN(C)CCCC1(c2ccc(F)cc2)OCc2cc(Br)ccc21 (racemic) | 0.00104 | 28.4 |  |  |  |  |
| CN(C)CCCC1(c2ccc(F)cc2)OCc2c(/C=C/c3ccccc3)cccc21 (configuration not stated) | 0.0464 | 11.9 | 1.14 | 256 | 25 |  |
| CN(C)CCCC1(c2ccc(F)cc2)OCc2cc(I)ccc21 (configuration not stated) | 0.00142 |  | 1.35 |  |  |  |
